Test results: ChEMBL document CHEMBL5625212, “De novo designed self-assembling helicomimetic lipooligoureas with antibacterial activity” (Eur J Med Chem, 2023)
≈ marks a conversion by molar mass, not a printed value.

Tests used:
[1] = system: Enterococcus faecalis; assay: Antibacterial activity against Enterococcus faecalis ATCC 14506 assessed as reduction in bacterial growth measured after 24 hrs by spectrophotometer based analysis; format: functional
[2] = system: Staphylococcus aureus; assay: Antibacterial activity against Staphylococcus aureus ATCC 29213 assessed as reduction in bacterial growth measured after 24 hrs by spectrophotometer based analysis; format: functional
[3] = system: Staphylococcus aureus; assay: Antibacterial activity against methicillin resistant Staphylococcus aureus 401/5 assessed as reduction in bacterial growth measured after 24 hrs by spectrophotometer based analysis; format: functional
[4] = system: Staphylococcus aureus; assay: Antibacterial activity against methicillin resistant Staphylococcus aureus 4811/13 assessed as reduction in bacterial growth measured after 24 hrs by spectrophotometer based analysis; format: functional
[5] = system: Staphylococcus aureus; assay: Antibacterial activity against methicillin resistant Staphylococcus aureus 5288/13 assessed as reduction in bacterial growth measured after 24 hrs by spectrophotometer based analysis; format: functional
[6] = system: Staphylococcus epidermidis; assay: Antibacterial activity against Staphylococcus epidermidis ATCC 12228 assessed as reduction in bacterial growth measured after 24 hrs by spectrophotometer based analysis; format: functional
[7] = Aggregation property of compound in PBS assessed as critical aggregation concentration; format: physicochemical; conditions: buffer
[8] = Proteolytic stability of the compound in human serum assessed as drug degradation measured after 96 hrs by RP-HPLC analysis; format: ADME, cell-free; conditions: read-out: Drug degradation
[9] = system: Escherichia coli; assay: Antibacterial activity against Escherichia coli ST2-8624 O157 H7 assessed as reduction in bacterial growth measured after 24 hrs by spectrophotometer based analysis; format: functional
[10] = system: Klebsiella pneumoniae; assay: Antibacterial activity against Klebsiella pneumoniae PCM 1 assessed as reduction in bacterial growth measured after 24 hrs by spectrophotometer based analysis; format: functional
[11] = system: Pseudomonas aeruginosa; assay: Antibacterial activity against Pseudomonas aeruginosa PA01 PCM 499 assessed as reduction in bacterial growth measured after 24 hrs by spectrophotometer based analysis; format: functional
[12] = system: Salmonella typhimurium; assay: Antibacterial activity against Salmonella enterica subsp. enterica serovar Typhimurium TT622 assessed as reduction in bacterial growth measured after 24 hrs by spectrophotometer based analysis; format: functional
[13] = system: Yersinia enterocolitica; assay: Antibacterial activity against Yersinia enterocolitica PCM 2081 assessed as reduction in bacterial growth measured after 24 hrs by spectrophotometer based analysis; format: functional
[14] = Proteolytic stability of the compound in human serum assessed as drug degradation measured after 24 hrs by RP-HPLC analysis; format: ADME, cell-free; conditions: read-out: Drug degradation
[15] = Proteolytic stability of the compound in human serum assessed as drug degradation measured within 4 hrs by RP-HPLC analysis; format: ADME, cell-free

Compound	MIC [1] [µg/mL]	MIC [2] [µg/mL]	MIC [3] [µg/mL]	MIC [4] [µg/mL]	MIC [5] [µg/mL]	MIC [6] [µg/mL]	CAC [7] [µM]	metabolised at 96 h [8] [%]	MIC [9] [µg/mL]	MIC [10] [µg/mL]	MIC [11] [µg/mL]	MIC [12] [µg/mL]	MIC [13] [µg/mL]	metabolised at 24 h [14] [%]	Stability [15]
CCCCCCCCCC(=O)N[C@@H](Cc1c[nH]c2ccccc12)C(=O)N[C@H](CC(N)=O)C(=O)N[C@@H](CC(=O)O)C(=O)N[C@@H]1C(=O)NCC(=O)N[C@@H](CCCN)C(=O)N[C@@H](CC(=O)O)C(=O)N[C@H](C)C(=O)N[C@@H](CC(=O)O)C(=O)NCC(=O)N[C@H](CO)C(=O)N[C@@H]([C@H](C)CC(=O)O)C(=O)N[C@@H](CC(=O)c2ccccc2N)C(=O)O[C@@H]1C	3.5 (≈ 2.16 µM)	2 (≈ 1.23 µM)	1.5 (≈ 0.926 µM)	2 (≈ 1.23 µM)	2 (≈ 1.23 µM)	1 (≈ 0.617 µM)	–	–	–	–	–	–	–	–	–
CCCCCCCCCC(=O)N[C@H](CNC(=O)N[C@@H](CCCCN)CNC(=O)N[C@@H](CCCCN)CN[C@H](CNC(=O)N[C@@H](CCCCN)CNC(N)=O)CC(C)C)Cc1ccccc1	–	30 (≈ 32.7 µM)	30 (≈ 32.7 µM)	30 (≈ 32.7 µM)	40 (≈ 43.6 µM)	30 (≈ 32.7 µM)	79	15	–	–	–	–	–	–	–
CCCCCCCCCC(=O)N[C@H](CNC(=O)N[C@@H](CCN)CNC(=O)N[C@H](CN[C@H](CNC(=O)N[C@@H](CCN)CNC(N)=O)CC(C)C)CC(C)C)Cc1ccccc1	5 (≈ 5.9 µM)	5 (≈ 5.9 µM)	5 (≈ 5.9 µM)	5 (≈ 5.9 µM)	5 (≈ 5.9 µM)	5 (≈ 5.9 µM)	40	8	10 (≈ 11.8 µM)	20 (≈ 23.6 µM)	10 (≈ 11.8 µM)	20 (≈ 23.6 µM)	10 (≈ 11.8 µM)	4	–
CCCCCCCCCC(=O)N[C@H](CNC(=O)N[C@@H](CCN)CNC(=O)N[C@@H](CCN)CN[C@H](CNC(=O)N[C@@H](CCN)CNC(N)=O)CC(C)C)Cc1ccccc1	40 (≈ 48 µM)	20 (≈ 24 µM)	20 (≈ 24 µM)	30 (≈ 36 µM)	30 (≈ 36 µM)	20 (≈ 24 µM)	87	8	–	–	–	–	–	–	–
CCCCCCCCCC(=O)N[C@H](CNC(=O)N[C@@H](CCN)CNC(=O)N[C@@H](CCN)CN[C@H](CNC(=O)N[C@H](CNC(N)=O)CC(C)C)CC(C)C)Cc1ccccc1	20 (≈ 23.6 µM)	10 (≈ 11.8 µM)	10 (≈ 11.8 µM)	10 (≈ 11.8 µM)	10 (≈ 11.8 µM)	10 (≈ 11.8 µM)	56	8	30 (≈ 35.4 µM)	30 (≈ 35.4 µM)	30 (≈ 35.4 µM)	30 (≈ 35.4 µM)	30 (≈ 35.4 µM)	–	–
NC(=O)[C@H](Cc1ccccc1)NC(=O)[C@H](Cc1ccccc1)NC(=O)[C@@H]1CCCN1C(=O)[C@@H](N)Cc1ccc(O)cc1 [ENDOMORPHIN 2]	–	–	–	–	–	–	–	–	–	–	–	–	–	–	Unstable
